Measured values: patent US20240390448A1, “USE OF TRADITIONAL CHINESE MEDICINE COMPOSITION IN PREPARATION OF DRUGS FOR TREATING NEUROGENIC PULMONARY EDEMA” (SHANDONG NEW TIME PHARMACEUTICAL CO., LTD., priority 2021, published 2024)

Test system: spinal cord injury-induced neurogenic pulmonary edema
Test: Model of spinal cord injury-induced neurogenic pulmonary edema (laminectomy and spinal cord injury)
Format: in vivo, ICR mice
Conditions: mice, example 1 granule 18 g/kg intragastric, dexamethasone 0.025 mg/kg intramuscular, 2 consecutive days from 24 h after molding, lungs taken on 3rd day, n = 8, x ± s
From the text: It is a typical molding method of an animal with neurogenic pulmonary edema by performing laminectomy on a rate to cause spine injury and thus inducing pulmonary edema of the mouse. The molding method is simple and easy to implement and high in success rate.
4-6 week old male ICR mice weighed 23-25 g were provided by the Lunan Pharmaceutical Co., Ltd and adaptively fed for one week before an experiment.
40 mice were taken and randomly divided into a sham surgery group, a model group, a dexamethasone group, an example 1 granule group, and a dexamethasone+example 1 granule group, with 8 mice in each group. The rats in the sham surgery group were subjected to laminectomy without spinal cord injury, while the rats in the model group and each administration group were subjected to laminectomy and spinal cord injury. […] The animals were anesthetized and sacrificed on the 3rd of the molding, the lungs were taken out, the wet weight was weighed, the lungs were placed in a 60° C. oven for drying for 48 h and taken out, the dry weight was weighed, and a ratio of wet weight/dry weight was calculated.

## C[C@@H]1C[C@H]2[C@@H]3CCC4=CC(=O)C=C[C@]4(C)[C@@]3(F)[C@@H](O)C[C@]2(C)[C@@]1(O)C(=O)CO [Dexamethasone, dexamethasone]
  Lung wet weight/dry weight: 4.92 ± 0.13
